Results from patent US6737397B1, “Control of cancer growth through the interaction of [MET5]-enkephalin and the zeta receptor” (The Penn State Research Foundation, priority 1996, dated 2004).
Read-outs that look alike come from different tables or passages of the source. No end group written: not given here.

Legend:
ζ-opioid receptor = molecular target: T1, ζ-opioid receptor (Homo sapiens, UniProt Q9NZT2); assay: Competition for binding of [3H][Met5]enkephalin (4.0 nM) in nuclear homogenates of HT-29 human colon tumors; set-up: from tissue; host or cells: HT-29 human colon tumor xenografts grown in athymic nude mice; nuclear (P1) and other subcellular fractions
T1 sequence (Q9NZT2 1-677): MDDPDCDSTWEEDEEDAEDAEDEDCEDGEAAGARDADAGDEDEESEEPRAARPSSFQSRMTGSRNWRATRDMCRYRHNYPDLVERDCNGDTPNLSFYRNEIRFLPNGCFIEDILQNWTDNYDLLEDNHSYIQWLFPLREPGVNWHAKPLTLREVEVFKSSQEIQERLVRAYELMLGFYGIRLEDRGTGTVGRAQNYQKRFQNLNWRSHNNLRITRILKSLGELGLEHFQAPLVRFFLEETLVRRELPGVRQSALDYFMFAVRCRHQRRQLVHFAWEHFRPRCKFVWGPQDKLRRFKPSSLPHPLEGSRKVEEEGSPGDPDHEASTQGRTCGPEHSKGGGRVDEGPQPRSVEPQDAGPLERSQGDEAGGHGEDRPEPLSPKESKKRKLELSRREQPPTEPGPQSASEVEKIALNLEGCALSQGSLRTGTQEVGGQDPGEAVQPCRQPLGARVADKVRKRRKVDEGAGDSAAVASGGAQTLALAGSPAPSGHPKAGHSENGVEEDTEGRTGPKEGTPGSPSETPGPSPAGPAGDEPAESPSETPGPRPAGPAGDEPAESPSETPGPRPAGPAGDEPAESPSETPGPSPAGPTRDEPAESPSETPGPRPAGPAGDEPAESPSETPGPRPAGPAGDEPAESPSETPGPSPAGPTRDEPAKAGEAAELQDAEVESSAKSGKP

COLO 205 cells = assay: Growth assay (cell counts) of COLO 205 human colon cancer cells; assay type: cell-based
Protocol: (§1) HT-29, WiDr, and COLO 205 cell lines were obtained from the American Type Culture Collection (Rockville, Md.). HT-29 cells were grown in McCoy's 5A media (modified), WiDr cells in Minimum Essential Media, and COLO 205 cells in RPMI 1640 media; all media contained 10% fetal calf serum, 2 mM […], 1.2% sodium bicarbonate and antibiotics (11 Units/ml penicillin, 10 μg/ml streptomycin, 10 μg/ml neomycin) in a humidified atmosphere of 7% CO2/93% air at 37° C. In some examples, cultures of HT-29 cells were maintained in McCoy's 5A media without fetal calf serum.
(§2) Cells were seeded at equivalent amounts into 75 cm^2 flasks or into 9.6 cm^2 wells (6-well plates, Falcon) and were counted 24 hr later to determine plating efficiency. Drugs or sterile water were added beginning 24 hr after seeding (=0 hours) and both media and drugs were changed daily. All drugs were prepared in sterile water and dilutions represent final concentrations of the compounds. At appropriate times, cells were harvested with 0.05% trypsin/0.53 mM EDTA, centrifuged, and counted with a hemacytometer at 200×. Cell viability was determined by trypan blue staining. At least 2 aliquots/flask or well were counted and 2 flasks or wells/time point/treatment group were sampled.
(§3) To examine the ubiquity of opioid activity with respect to colon cancer, two other colon cancer cell lines were investigated: COLO 205 and WiDr.

HT-29 cells = assay: Growth assay (cell counts) of HT-29 human colon cancer cells in culture; assay type: cell-based; conditions: 48 hr
Protocol: In some examples, cultures of HT-29 cells were maintained in McCoy's 5A media without fetal calf serum.
as §2

[1] = test system: HT-29 human colon cancer cells; assay: HT-29 human colon cancer xenografts in nude mice treated with OGF and/or naloxone
WiDr cells = assay: Growth assay (cell counts) of WiDr human colon cancer cells; assay type: cell-based
Protocol: as §1, §2, §3

Compound: dynorphin A 1-8 [Dynorphin A-(1-8)]
- ability to compete in displacing [3H]-[Met5]-enkephalin binding (ζ-opioid receptor): not competitive

Compound: YGGFMRGL [[Met^5]enkephalin-Arg^6-Gly^7-Leu^8, [Met^5,Arg^6,Gly^7,Leu^8]-enkephalin]
- IC50 (ζ-opioid receptor): 0.0375 ± 0.0075 µM
- Ki (ζ-opioid receptor): 0.0289 ± 0.0058 µM

Compound: CSCC[C@H](NC(=O)[C@H](Cc1ccc(OS(=O)(=O)O)cc1)NC(=O)[C@@H](N)CC(=O)O)C(=O)NCC(=O)N[C@@H](Cc1c[nH]c2ccccc12)C(=O)N[C@@H](CCSC)C(=O)N[C@@H](CC(=O)O)C(=O)N[C@@H](Cc1ccccc1)C(N)=O [CCK-8, cholecystokinin octapeptide]
- ability to compete in displacing [3H]-[Met5]-enkephalin binding (ζ-opioid receptor): exhibit ability to compete

Compound: C=CCN1CC[C@]23c4c5ccc(O)c4O[C@H]2C(=O)CC[C@@]3(O)[C@H]1C5 [naloxone]
- influence on growth, alone (COLO 205 cells; 10^−6 M): no influence on growth
- effect of naloxone on suppressive effects of [Met5]-enkephalin on growth (COLO 205 cells; 10^−6 M each): eliminated
- effect of concomitant naloxone on [Met5]-enkephalin inhibition of cell number (HT-29 cells; 10^−6 M each): blocked the inhibitory effects
- effect on cell growth, alone (HT-29 cells; 10^−6 M): no effect on cell growth
- latencies of palpable, visible, or measurable tumors or incidence of cancer versus control mice ([1]; 5 mg/kg OGF with 10 mg/kg naloxone, or 10 mg/kg naloxone alone): No differences
- Latency for measurable tumor appearance, days, range ([1]; 10 mg/kg Nal daily): (10-16) days
- Latency for palpable tumor ([1]; 10 mg/kg Nal daily): 9.3 ± 1.4 days
- Latency for visible tumor ([1]; 10 mg/kg Nal daily): 10.3 ± 1.4 days
- No. of mice with tumors 21 days after inoculation ([1]; 10 mg/kg Nal daily): 4/5
- No. of mice with tumors 50 days after inoculation ([1]; 10 mg/kg Nal daily): 4/5
- tumor volume ([1]; 50 days after inoculation, 10 mg/kg naloxone alone): 1,494±517 mm^3
- influence on growth, alone (WiDr cells; 10^−6 M): no influence on growth
- effect of naloxone on suppressive effects of [Met5]-enkephalin on growth (WiDr cells; 10^−6 M each): eliminated

Compound: CC[C@H](C)[C@H](NC(=O)[C@H](C)NC(=O)[C@H](CC(N)=O)NC(=O)[C@H](CCCCN)NC(=O)[C@H](Cc1ccccc1)NC(=O)[C@H](CC(C)C)NC(=O)[C@@H](NC(=O)[C@@H](NC(=O)[C@H](CC(C)C)NC(=O)[C@@H]1CCCN1C(=O)[C@@H](NC(=O)[C@H](CCC(N)=O)NC(=O)[C@H](CO)NC(=O)[C@H](CCCCN)NC(=O)[C@H](CCC(=O)O)NC(=O)[C@H](CO)NC(=O)[C@@H](NC(=O)[C@H](CCSC)NC(=O)[C@H](Cc1ccccc1)NC(=O)CNC(=O)CNC(=O)[C@@H](N)Cc1ccc(O)cc1)[C@@H](C)O)[C@@H](C)O)C(C)C)[C@@H](C)O)C(=O)N[C@H](C(=O)N[C@@H](CCCCN)C(=O)N[C@@H](CC(N)=O)C(=O)N[C@@H](C)C(=O)N[C@@H](Cc1ccc(O)cc1)C(=O)N[C@@H](CCCCN)C(=O)N[C@@H](CCCCN)C(=O)NCC(=O)N[C@@H](CCC(=O)O)C(=O)O)[C@@H](C)CC [β-Endorphin, β-endorphin]
- less potent than [Met5]-enkephalin in displacing radiolabeled [Met5]-enkephalin binding (ζ-opioid receptor): 4.3 fold

Compound: C[C@H](N)C(=O)NCC(=O)N[C@H]1CSSC[C@@H](C(=O)O)NC(=O)[C@H](CO)NC(=O)[C@H]([C@@H](C)O)NC(=O)[C@H](Cc2ccccc2)NC(=O)[C@H]([C@@H](C)O)NC(=O)[C@H](CCCCN)NC(=O)[C@H](Cc2c[nH]c3ccccc23)NC(=O)[C@H](Cc2ccccc2)NC(=O)[C@H](Cc2ccccc2)NC(=O)[C@H](CC(N)=O)NC(=O)[C@H](CCCCN)NC1=O [Somatostatin]
- IC50 (ζ-opioid receptor): > 10 µM
- Ki (ζ-opioid receptor): > 10 µM

Compound: SKF-10,047
- ability to compete in displacing [3H]-[Met5]-enkephalin binding (ζ-opioid receptor): not competitive
- IC50 (ζ-opioid receptor; read-out: IC50): 0.795 ± 0.005 µM
- Ki (ζ-opioid receptor; read-out: KI): 0.612 ± 0.004 µM

Compound: CC[C@]12CCN(CC3CC3)[C@H](C(=O)c3ccc(O)cc31)[C@@H]2C [EKC, ethylketocyclazocine]
- IC50 (ζ-opioid receptor): > 10000 µM
- Ki (ζ-opioid receptor): > 10000 µM
- ability to compete in displacing [3H]-[Met5]-enkephalin binding (ζ-opioid receptor): not competitive

Compound: CSCC[C@H](NC(=O)[C@H](Cc1c[nH]c2ccccc12)NC(=O)CNC(=O)[C@H](Cc1ccc(O)cc1)NC(=O)[C@H](C)NC(=O)[C@H](CCC(=O)O)NC(=O)[C@H](CCC(=O)O)NC(=O)[C@H](CCC(=O)O)NC(=O)[C@H](CCC(=O)O)NC(=O)[C@H](CCC(=O)O)NC(=O)[C@H](CC(C)C)NC(=O)[C@H](Cc1c[nH]c2ccccc12)NC(=O)[C@@H]1CCCN1C(=O)CNC(=O)[C@@H]1CCC(=O)N1)C(=O)N[C@@H](CC(=O)O)C(=O)N[C@@H](Cc1ccccc1)C(N)=O [Gastrin]
- IC50 (ζ-opioid receptor): 0.0775 ± 0.0075 µM
- Ki (ζ-opioid receptor): 0.0596 ± 0.0058 µM
